Results reported in the NIST ThermoML archive (doi:10.1016/j.jct.2013.02.017).

Experiment: molar heat capacity at constant pressure
Conditions: 101.33 kPa, relaxation calorimetry - Quantum Design PPMS

O=P([O-])([O-])[O-].[Fe+3] [iron(III) phosphate]
molar heat capacity at constant pressure [J/K/mol]
Conditions | Crystal 1 | Crystal 2
1 K | – | 0.003782
1.886 K | – | 0.04093
1.997 K | – | 0.04782
2.181 K | – | 0.0617
2.476 K | – | 0.09126
2.736 K | – | 0.127
3 K | – | 0.18
3.028 K | – | 0.1804
3.36 K | – | 0.2601
3.752 K | – | 0.3807
4 K | – | 0.4766
4.187 K | – | 0.5478
4.659 K | – | 0.7673
4.845 K | – | 0.8619
5 K | – | 0.9387
5.18 K | – | 1.047
5.77 K | – | 1.391
6 K | – | 1.539
6.414 K | – | 1.814
6.798 K | – | 2.084
7 K | – | 2.22
7.132 K | – | 2.309
7.933 K | – | 2.865
8 K | – | 2.913
8.77 K | – | 3.466
8.832 K | – | 3.516
9 K | – | 3.635
10 K | – | 4.367
10.05 K | – | 4.403
11 K | – | 5.121
11.15 K | – | 5.235
12 K | – | 5.897
12.38 K | – | 6.189
12.94 K | – | 6.616
13 K | – | 6.67
13.73 K | – | 7.26
14 K | – | 7.443
14.43 K | – | 7.762
14.95 K | – | 8.294
15 K | – | 8.323
15.43 K | – | 8.719
15.94 K | – | 9.181
16 K | – | 9.243
16.43 K | – | 9.674
16.95 K | – | 10.23
17 K | – | 10.28
17.45 K | – | 10.8
17.84 K | – | 11.2
18 K | – | 11.49
18.13 K | – | 11.71
18.45 K | – | 12.08
18.82 K | – | 12.45
19 K | – | 12.58
19.22 K | – | 12.73
19.66 K | – | 13.2
19.99 K | – | 13.49
20 K | – | 13.57
20.25 K | – | 13.97
20.64 K | – | 14.43
20.82 K | – | 14.73
21.1 K | – | 15.1
21.5 K | – | 15.55
21.71 K | – | 16.04
21.92 K | – | 16.34
22.11 K | – | 16.68
22.32 K | – | 17.08
22.51 K | – | 17.48
22.73 K | – | 17.86
22.92 K | – | 18.38
23.11 K | – | 18.7
23.36 K | – | 19.34
23.55 K | – | 19.72
23.76 K | – | 20.25
23.95 K | – | 20.84
24.15 K | – | 21.42
24.38 K | – | 21.93
24.61 K | – | 22.61
24.87 K | – | 23.08
25 K | 23.11 | 23.11
25.08 K | 23.28 | –
25.18 K | 22.8 | –
25.4 K | 21.44 | –
25.43 K | 20.48 | –
25.62 K | 18.26 | –
25.68 K | 17.59 | –
25.72 K | 17.26 | –
25.94 K | 15.76 | –
25.99 K | 15.49 | –
26.15 K | 14.92 | –
26.41 K | 14.37 | –
26.94 K | 13.87 | –
27.46 K | 13.73 | –
27.94 K | 13.72 | –
28.45 K | 13.76 | –
28.97 K | 13.89 | –
29.45 K | 14.01 | –
29.98 K | 14.01 | –
30 K | 14.02 | –
30.99 K | 14.13 | –
32.01 K | 14.38 | –
33.01 K | 14.68 | –
34.02 K | 15.04 | –
35 K | 15.41 | –
35.05 K | 15.43 | –
36.05 K | 15.83 | –
37.06 K | 16.23 | –
38.07 K | 16.64 | –
39.08 K | 17.07 | –
40 K | 17.52 | –
40.08 K | 17.53 | –
41.1 K | 17.99 | –
42.11 K | 18.43 | –
43.12 K | 18.88 | –
44.12 K | 19.31 | –
45 K | 19.76 | –
45.14 K | 19.79 | –
46.14 K | 20.26 | –
47.17 K | 20.76 | –
48.16 K | 21.23 | –
49.19 K | 21.7 | –
50 K | 22.04 | –
50.22 K | 22.15 | –
53.7 K | 23.85 | –
55 K | 24.35 | –
59.64 K | 26.61 | –
60 K | 26.66 | –
65 K | 28.97 | –
66.28 K | 29.55 | –
70 K | 31.26 | –
73.59 K | 32.72 | –
75 K | 33.49 | –
80 K | 35.67 | –
81.69 K | 36.3 | –
85 K | 37.77 | –
90 K | 39.9 | –
90.72 K | 40.16 | –
95 K | 42.03 | –
100 K | 44.11 | –
100.73 K | 44.09 | –
110 K | 48.06 | –
110.86 K | 47.98 | –
120 K | 51.77 | –
120.94 K | 51.73 | –
130 K | 55.28 | –
131.04 K | 55.47 | –
140 K | 58.62 | –
141.13 K | 58.97 | –
150 K | 61.85 | –
151.25 K | 62.31 | –
160 K | 64.98 | –
161.4 K | 65.71 | –
170 K | 68.05 | –
171.44 K | 68.87 | –
180 K | 71.06 | –
181.6 K | 71.84 | –
190 K | 74.02 | –
191.71 K | 74.76 | –
200 K | 76.93 | –
201.83 K | 77.69 | –
210 K | 79.79 | –
211.94 K | 80.42 | –
220 K | 82.59 | –
222.06 K | 83.12 | –
230 K | 85.33 | –
232.15 K | 85.84 | –
240 K | 88 | –
242.24 K | 88.09 | –
250 K | 90.6 | –
252.28 K | 90.69 | –
260 K | 93.11 | –
262.36 K | 92.91 | –
270 K | 95.55 | –
272.53 K | 95.97 | –
273.15 K | 96.3 | –
280 K | 97.9 | –
282.61 K | 99.14 | –
290 K | 100.17 | –
292.62 K | 101.41 | –
298.15 K | 101.96 | –
300 K | 102.35 | –
302.73 K | 102.84 | –
